# From ChEMBL document CHEMBL1201862, “PubChem BioAssay data set” (2004)
#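 All cell lines were grown in 96-well plates and treated with compound for 48 hours. GI50 = concentration required for 50% inhibition of growth.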 Active and inactive are the calls of the source. Rule as the data show it: active = GI50 up to about 1.1 µM and inactive = higher.
# Experiments:
# Experiment in all cases: inhibition of tumour cell growth, NCI panel, 48 h
# UACC-62 = tested on: UACC-62
# K562 = tested on: K562
# U-251 = tested on: U-251
# CCRF-CEM = tested on: CCRF-CEM
# DMS-273 = tested on: DMS-273
# ACHN = tested on: ACHN
# NCI-H23 = tested on: NCI-H23
# HOP-92 = tested on: HOP-92
# IGROV-1 = tested on: IGROV-1
# KM-20L2 = tested on: KM-20L2
# SF-539 = tested on: SF-539
# XF498 = tested on: XF498
# SK-OV-3 = tested on: SK-OV-3
# SNB-19 = tested on: SNB-19
# HT-29 = tested on: HT-29
# TK-10 = tested on: TK-10
# OVCAR-3 = tested on: OVCAR-3
# RXF 631 = tested on: RXF 631
# HCT-116 = tested on: HCT-116
# OVCAR-4 = tested on: OVCAR-4
# NCI-H226 = tested on: NCI-H226
# HOP-18 = tested on: HOP-18
# 786-0 = tested on: 786-0
# M14 = tested on: M14
# A549 = tested on: A549
# EKVX = tested on: EKVX
# M19-MEL = tested on: M19-MEL
# KM12 = tested on: KM12
# UO-31 = tested on: UO-31
# SNB-78 = tested on: SNB-78
# OVCAR-8 = tested on: OVCAR-8
# SK-MEL-5 = tested on: SK-MEL-5
# NCI-H460 = tested on: NCI-H460
# DMS-114 = tested on: DMS-114
# SNB-75 = tested on: SNB-75
# HOP-62 = tested on: HOP-62
# LOX IMVI = tested on: LOX IMVI
# HCT-15 = tested on: HCT-15
# UACC-257 = tested on: UACC-257
# HL-60 = tested on: HL-60
# SK-MEL-28 = tested on: SK-MEL-28
# RPMI-8226 = tested on: RPMI-8226
# RXF 393 = tested on: RXF 393
# HCC 2998 = tested on: HCC 2998
# OVCAR-5 = tested on: OVCAR-5
# LXFL 529 = tested on: LXFL 529
# COLO 205 = tested on: COLO 205
# SR = tested on: SR
# DLD-1 = tested on: DLD-1
# SW-620 = tested on: SW-620
# Malme-3M = tested on: Malme-3M
# MOLT-4 = tested on: MOLT-4
# NCI-H522 = tested on: NCI-H522
# SK-MEL-2 = tested on: SK-MEL-2
# CAKI-1 = tested on: CAKI-1
# SN12C = tested on: SN12C
# SF-295 = tested on: SF-295
# A498 = tested on: A498
# SF-268 = tested on: SF-268
compound,measurement,setting,value
CCCCCCCCCCCCCP(=O)(OC)OC,GI50,UACC-62,17.9 µM (inactive)
same,GI50,K562,23.2 µM (inactive)
same,GI50,U-251,18.5 µM (inactive)
same,GI50,CCRF-CEM,20.8 µM (inactive)
same,GI50,DMS-273,19.1 µM (inactive)
same,GI50,ACHN,18.5 µM (inactive)
same,GI50,NCI-H23,18.7 µM (inactive)
same,GI50,HOP-92,16.9 µM (inactive)
same,GI50,IGROV-1,19.3 µM (inactive)
same,GI50,KM-20L2,26.8 µM (inactive)
same,GI50,SF-539,17 µM (inactive)
same,GI50,XF498,17.9 µM (inactive)
same,GI50,SK-OV-3,19 µM (inactive)
same,GI50,SNB-19,20.8 µM (inactive)
same,GI50,HT-29,18.4 µM (inactive)
same,GI50,TK-10,17.8 µM (inactive)
same,GI50,OVCAR-3,20.2 µM (inactive)
same,GI50,RXF 631,17.7 µM (inactive)
same,GI50,HCT-116,19.6 µM (inactive)
same,GI50,OVCAR-4,19.8 µM (inactive)
same,GI50,NCI-H226,19.2 µM (inactive)
same,GI50,HOP-18,18.1 µM (inactive)
same,GI50,786-0,19.5 µM (inactive)
same,GI50,M14,19.9 µM (inactive)
same,GI50,A549,21.2 µM (inactive)
same,GI50,EKVX,19.4 µM (inactive)
same,GI50,M19-MEL,19.3 µM (inactive)
same,GI50,KM12,17.5 µM (inactive)
same,GI50,UO-31,16.3 µM (inactive)
same,GI50,SNB-78,17.5 µM (inactive)
same,GI50,OVCAR-8,17 µM (inactive)
same,GI50,SK-MEL-5,18.6 µM (inactive)
same,GI50,NCI-H460,17.1 µM (inactive)
same,GI50,DMS-114,21.6 µM (inactive)
same,GI50,SNB-75,21.2 µM (inactive)
same,GI50,HOP-62,14.9 µM (inactive)
same,GI50,LOX IMVI,19.3 µM (inactive)
same,GI50,HCT-15,17.7 µM
same,GI50,UACC-257,19.4 µM (inactive)
same,GI50,HL-60,15.6 µM (inactive)
same,GI50,SK-MEL-28,24.3 µM (inactive)
same,GI50,RPMI-8226,24.3 µM (inactive)
same,GI50,RXF 393,31.8 µM (inactive)
same,GI50,HCC 2998,21.5 µM (inactive)
same,GI50,OVCAR-5,16.5 µM (inactive)
same,GI50,LXFL 529,19.1 µM (inactive)
same,GI50,COLO 205,20 µM (inactive)
same,GI50,SR,19 µM (inactive)
same,GI50,DLD-1,16.1 µM (inactive)
same,GI50,SW-620,17.7 µM (inactive)
same,GI50,Malme-3M,22.5 µM (inactive)
same,GI50,MOLT-4,19.1 µM (inactive)
same,GI50,NCI-H522,13.6 µM (inactive)
same,GI50,SK-MEL-2,17.5 µM (inactive)
same,GI50,CAKI-1,18 µM (inactive)
same,GI50,SN12C,20.2 µM (inactive)
same,GI50,SF-295,21.5 µM (inactive)
Cc1cc2c(c(C#N)c1C)NC(=O)C(CC(=O)O)C2=O (stereo not drawn),GI50,UACC-62,> 100 µM (inactive)
same,GI50,K562,> 100 µM (inactive)
same,GI50,U-251,> 100 µM (inactive)
same,GI50,CCRF-CEM,> 100 µM (inactive)
same,GI50,DMS-273,> 100 µM (inactive)
same,GI50,ACHN,> 100 µM (inactive)
same,GI50,NCI-H23,> 100 µM (inactive)
same,GI50,HOP-92,> 100 µM (inactive)
same,GI50,IGROV-1,> 100 µM (inactive)
same,GI50,KM-20L2,> 100 µM (inactive)
same,GI50,SF-539,> 100 µM (inactive)
same,GI50,A498,> 100 µM (inactive)
same,GI50,XF498,> 100 µM (inactive)
same,GI50,SK-OV-3,> 100 µM (inactive)
same,GI50,HT-29,> 100 µM (inactive)
same,GI50,TK-10,> 100 µM (inactive)
same,GI50,OVCAR-3,> 100 µM (inactive)
same,GI50,RXF 631,> 100 µM (inactive)
same,GI50,HCT-116,> 100 µM (inactive)
same,GI50,OVCAR-4,> 100 µM (inactive)
same,GI50,NCI-H226,> 100 µM (inactive)
same,GI50,HOP-18,> 100 µM (inactive)
same,GI50,786-0,> 100 µM (inactive)
same,GI50,M14,> 100 µM (inactive)
same,GI50,A549,> 100 µM (inactive)
same,GI50,EKVX,> 100 µM (inactive)
same,GI50,M19-MEL,> 100 µM (inactive)
same,GI50,KM12,> 100 µM (inactive)
same,GI50,UO-31,> 100 µM (inactive)
same,GI50,SF-268,> 100 µM (inactive)
same,GI50,SNB-78,> 100 µM (inactive)
same,GI50,OVCAR-8,> 100 µM (inactive)
same,GI50,SK-MEL-5,> 100 µM (inactive)
same,GI50,NCI-H460,> 100 µM (inactive)
same,GI50,DMS-114,> 100 µM (inactive)
same,GI50,SNB-75,> 100 µM (inactive)
same,GI50,HOP-62,> 100 µM (inactive)
same,GI50,LOX IMVI,> 100 µM (inactive)
same,GI50,HCT-15,> 100 µM
same,GI50,UACC-257,> 100 µM (inactive)
same,GI50,HL-60,> 100 µM (inactive)
same,GI50,SK-MEL-28,> 100 µM (inactive)
same,GI50,RPMI-8226,> 100 µM (inactive)
same,GI50,RXF 393,> 100 µM (inactive)
same,GI50,HCC 2998,> 100 µM (inactive)
same,GI50,OVCAR-5,> 100 µM (inactive)
same,GI50,LXFL 529,> 100 µM (inactive)
same,GI50,COLO 205,> 100 µM (inactive)
same,GI50,DLD-1,> 100 µM (inactive)
same,GI50,SW-620,> 100 µM (inactive)
same,GI50,Malme-3M,> 100 µM (inactive)
same,GI50,MOLT-4,> 100 µM (inactive)
same,GI50,SK-MEL-2,> 100 µM (inactive)
same,GI50,CAKI-1,> 100 µM (inactive)
same,GI50,SN12C,> 100 µM (inactive)
same,GI50,SF-295,> 100 µM (inactive)
